One assay has as its system C. elegans. In words: C. elegans assay (development and body length). Conditions: three concentrations spanning 1 μM→100 μM. It is filed as in vivo. How it is done:
Synchronized cultures of C. elegans were obtained using the following procedure: a mixed population of worms containing many gravid adults was washed off of two 10 cm NGM plates using distilled water. C. elegans were pelleted at 1000 g in a 15 mL conical tube and the supernatant was discarded. A mix of 3 mL distilled water, 1 mL bleach, and 1 mL 1 M NaOH was added. The tube was inverted for several minutes until it could be observed that the gravid adults had released their eggs. The eggs were pelleted at 1000 g, washed three times with distilled water and suspended in 10 mL of M9 (3.0 g KH2PO4, 6.0 g Na2HPO4, 0.5 g NaCl, 1.0 g NH4Cl into 1 L distilled water). The egg suspension was rotated overnight in a 50 mL conical tube during which the embryos hatched and arrested at the L1 stage. The C. elegans were washed twice and diluted with M9 to reach an approximate concentration of 20 worms/10 μL. Each well in a 96-well plate was prepared by adding 10 μL worm suspension, 0.5 μg OP50 E. coli, 1 μL DMSO (control) or 1 μL DMSO with compounds, and brought to a final volume of 100 μL with M9 plus cholesterol (5 μg/mL). The plates were incubated in a humidified box at 23° C. for 72 hours. To immobilize worms to measure body length the worms were killed by immersing the 96-well plate in a 70° C. water bath for several minutes. Each experiment was performed in triplicate within each plate. […]

In a further assay the test system is NMuMG epithelial cells. In words: TGF-β induced EMT in NMuMG cell line (imaging assay). It is filed as cell-based, mouse. Conditions: 50 pM TGF-β, 72 h. How it is done: Mouse mammary epithelial cell line NMuMG was purchased from American Tissue Culture Collection (ATCC, Manassas, Va.), and NMuMG were cultured as per ATCC recommendations. Imaging assay: Cells were plated in glass bottomed 96 well imaging plates, at a density of 1,000 cells per well, and were allowed to attach overnight. Cells (with exception of 3 control wells) were treated with 50 pm TGF-β. Along with the TGF-β test compounds 1-5 were added in at various doses, and a set of wells was treated with a known TGF-β inhibitor SB431542 at 1 μM.
In the absence of TGF-β, NMuMG cells form an epithelial shape; incubation with 50 pM TGF-β for 72 h induces a more fibroblast-like, spindle shaped morphology indicative of mesenchymal cells (FIGS. 3A-3D). […] Nine concentrations (160-0.625 nM) of compounds 1-5 were tested for their ability to impact TGF-β signaling in NMuMG cells.

For another assay, the system named is TGF-β signaling. In words: MLEC luciferase assay (TGF-β activated luciferase, Bright-Glo). It is filed as cell-based, mink. Conditions: purified compounds, 24 hours with TGF-β, read-out: IC50, inhibition of TGF-β (MLEC-based TGF-β inhibition assay). The protocol: A total of 3840 fractions, plated on 12 384-well plates, were assayed in a high throughput screen at 10 μM final concentration. For purposes of concentration calculations we set the average molecular weight of each compound in the library at 500 Da. Each fraction had its different mass, therefore different volumes were used for each well in the screening. Z′ for the plates were between 0.53 and 0.45. Initial hits were identified as compounds that inhibited the Bright-Glo signal (see below MLEC assay) by more than 84%. Using this criteria, we identified 48 compounds of interest. The 48 initial hits were then re-screened in a 10 point dose response curve in duplicate. The compounds were assayed for both luciferase inhibition and toxicity using CellTiter-Glo (Promega). Of the 48 compounds identified in the HTS assay, 19 inhibited TGF-β activated luciferase activity without inducing mink lung cell toxicity. MLEC were plated into 384-well plates at a density of 5000 cells/well using Micro-flow (Biotek) multi well reagent dispenser and incubated overnight at 37° C. in the CO2 incubator. 1 μM control SB431542 or 10 μM of compounds 1-5 were added to the wells using the ECHO 550 (Labcyte), then added 10 μL media with […] TGF-β using Micro-flow and incubated for 24 hours at 37° C. 25 μL Bright-Glo (Promega) was added using Micro-flow, and agitated for 4 minutes. The Enspire (Perkin Elmer) plate reader was used to measure the TGF-β response in each well. The luciferase activity was reported as relative light units (RLU), and the readout of each tested fraction was then normalized against negative controls. Dose-response TGF-β data and cytotoxicity assays using fibroblasts were employed to more rigorously evaluate the 48 initial hits. […] Chemical analysis of the secondary metabolites in the active wells/extract fractions of WMMA2266 led to the discovery of five pyrimidinedione derivatives, biemamides A-E (1-5).

Turning to `NC(=O)c1ccc(-c2nc(-c3ccc4c(c3)OCO4)c(-c3ccccn3)[nH]2)cc1` [SB431542, reference compound], the C. elegans size result in the assay on C. elegans is recorded as “did not alter C. elegans size”. The “inhibition of TGF-β-induced EMT (cell morphology), positive control” value in the assay with NMuMG epithelial cells (1 μM) is “blocked TGF-β-induced transition of the NMuMG epithelial cells into mesenchymal cells”. The 50% inhibitory concentration (IC50) in the assay with TGF-β signaling was 411 nM.

For Biemamide A [Compound 1], the “inhibition of TGF-β-induced EMT (cell morphology)” value in the assay on NMuMG epithelial cells (nine concentrations 160-0.625 nM (FIG. 3C: 160 nM compound 1)) was “cells maintained their epithelial phenotype”. Also, the IC50 on TGF-β signaling amounted to 51.5 nM. In the case of Biemamide B [Compound 2], on TGF-β signaling, the IC50 amounted to 18.7 nM. Regarding Biemamide C [Compound 3], the IC50 at TGF-β signaling was found to be 51.5 nM. Same read-out and setting: as for Biemamide D [Compound 4], the figure is 102 nM; as for Biemamide E [Compound 5], 83.2 nM.

The values above are taken from US10889551B2, “Biemamides and related scaffolds as inhibitors of transforming growth factor-beta signaling” (Wisconsin Alumni Research Foundation, priority 2018, dated 2021).
